# Assay results as given in publication PMC9149975, “The diaryl-imidazopyridazine anti-plasmodial compound, MMV652103, exhibits anti-breast cancer activity” (EXCLI Journal, 2022).
# Key:
# [1] = test system: MCF12A (normal breast epithelial cell line); assay: MTT cytotoxicity assay, MCF12A; format: cell-based; conditions: Homo sapiens, MCF-12A, 48 h, Fig 2C summary, MTT 48 h; read-out: IC50 ± SEM MCF12A
# Experimental: (§1) Human estrogen-receptor positive (ER+) breast adenocarcinoma cell lines, MCF7 and T47D, were maintained in Roswell Park Memorial Institute-1640 medium (Sigma Aldrich, Missouri, USA) and the human epidermal growth factor receptor 2 positive (HER2+) BT474, and triple negative (TNBC) MDA-MB-231 and MDA-MB-468 cells were maintained in Dulbecco's Modified Eagle's Medium (DMEM) (Sigma Aldrich, Missouri, USA). […]
# (§2) Cells (3.5×10^3-6×10^3 / well) were seeded in 96-well plates and treated at a 60-70 % confluence with a range of concentrations (0-10 μM) of test compounds or vehicle for 48 h. Cell viability was measured using the 3-(4,5-dimethylthiazol-2-yl)-2,5-diphenyl-trazolium bromide (MTT) assay (11465007001; Sigma Aldrich) according to the manufacturer's instructions. Mean cell viability was calculated as a percentage of the mean vehicle control. A minimum of three independent experiments in quadruplicate were performed from which the IC50 was determined from sigmoidal plots using GraphPad Prism version 6.0 (GraphPad Software, California, USA). The selectivity index (SI) was determined by dividing the IC50 of a non-malignant cell line by the IC50 of a cancer cell line. […]
# [2] = MTT cytotoxicity assay, MCF12A; format: cell-based; conditions: human, MCF12A non-malignant breast epithelial cells, MTT, read-out: Cytotoxicity assays (MTT) IC50 MCF12A
# Experimental: as §1, §2
# [3] = target: T1, PI4KB (Homo sapiens, UniProt Q9UBF8); assay: ADP-Glo lipid kinase assay, PI4KB; format: biochemical
# T1 construct: purchased Carna Biosciences Inc; Invitrogen Corporation
# T1 sequence (Q9UBF8 whole entry): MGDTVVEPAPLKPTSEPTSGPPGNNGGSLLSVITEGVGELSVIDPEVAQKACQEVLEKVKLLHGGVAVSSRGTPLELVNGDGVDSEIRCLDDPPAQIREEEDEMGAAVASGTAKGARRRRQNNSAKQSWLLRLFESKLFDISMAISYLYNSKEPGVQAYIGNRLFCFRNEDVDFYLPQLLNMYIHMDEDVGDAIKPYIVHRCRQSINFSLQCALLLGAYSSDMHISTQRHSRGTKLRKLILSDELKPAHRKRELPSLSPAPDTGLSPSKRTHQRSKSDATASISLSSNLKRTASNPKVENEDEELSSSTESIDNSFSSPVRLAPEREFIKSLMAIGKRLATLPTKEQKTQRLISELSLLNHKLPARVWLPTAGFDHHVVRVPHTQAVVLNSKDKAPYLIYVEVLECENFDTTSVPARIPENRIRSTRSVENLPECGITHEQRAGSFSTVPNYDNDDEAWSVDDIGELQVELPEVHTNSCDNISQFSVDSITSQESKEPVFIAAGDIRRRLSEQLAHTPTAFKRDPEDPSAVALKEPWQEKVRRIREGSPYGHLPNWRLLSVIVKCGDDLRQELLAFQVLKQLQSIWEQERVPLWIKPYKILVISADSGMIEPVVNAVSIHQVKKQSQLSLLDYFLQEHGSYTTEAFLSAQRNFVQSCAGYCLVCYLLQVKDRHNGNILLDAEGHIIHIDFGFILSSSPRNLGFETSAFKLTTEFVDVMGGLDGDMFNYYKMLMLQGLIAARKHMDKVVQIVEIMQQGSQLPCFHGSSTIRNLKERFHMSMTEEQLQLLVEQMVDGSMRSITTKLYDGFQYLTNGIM
# Experimental: (§3) A non-radiometric kinase assay (ADP-Glo™ Assay, Promega, Madison, Wi, USA) was used for measuring the kinase activity of the 2 lipid kinases, phosphatidylinositol 4-kinase beta (encoded by the PI4KB gene) and phosphatidylinositol-4-Phosphate 3-Kinase Catalytic Subunit Type 2 Gamma (encoded by the PIK3C2G gene). All kinase assays were performed in 96-well half-area microtiter plates from Greiner Bio-One (Frickenhausen, Germany) in 25 µl reaction volumes. […] In addition, the assay for PI4KB contained 3 mM MnCl2 and the assay for PIK3C2G contained 3 mM MgCl2. Kinases from external vendors (Carna Biosciences Inc.; Invitrogen Corporation; Millipore Corporation) were expressed, purified and quality-controlled by virtue of the vendors readings. The reaction cocktails were incubated at 30 °C for 60 min. The reaction was stopped with 25 µl ADP-Glo reagent per well. Plates were incubated for 40 min at RT, followed by the addition of 50 µl kinase detection reagent per well and incubation for 60 min at RT. Signal was determined with a microplate luminescence reader (Victor, Perkin Elmer). […]
# (§4) For each kinase, the median value of the counts per second (cps) of three wells with complete reaction cocktails, but without kinase, was defined as "low control" (n=3). […] The residual activity (in %) for each well of each row of a particular plate was calculated by using the following formula: […]
# [4] = test system: MCF7 cells; assay: GSH-Glo Glutathione assay; format: cell-based, human; conditions: MCF7, 24 h; MMV652103 ½ IC50 and IC50, doxorubicin IC50 (9.84 nM)
# Experimental: The increase in ROS levels results in a decrease in the levels of antioxidants. To confirm the presence of intracellular ROS, the levels of the antioxidant, glutathione (GSH), was measured using the GSH-Glo™ Glutathione assay kit (V6911, Promega, Wisconsin, USA), according to the manufacturer's instructions. Briefly, cells (2500-4500 cells per well) were seeded in opaque 96 well plates. Cells were treated for 24 h with either vehicle or MMV652103. Thereafter, the cell culture medium was removed and 100 μl of 1X GSH-Glo™ Reagent (prepared using Luciferin-NT substrate and Glutathione S-Transferase each diluted 1:100 in GSH-Glo™ Reaction Buffer) was added to each well. The plate was then mixed briefly on a shaker and incubated for 10 min at RT. Thereafter, 100 μl reconstituted Luciferin Detection Reagent was added to each well. The plate was then incubated for 15 min RT in order to stabilize the luminescence signal. The plate was read using the GloMax® Explorer Multimode plate reader (Promega, Wisconsin, USA).
# [5] = target: T2, PIK3C2G (Homo sapiens, UniProt O75747); assay: ADP-Glo lipid kinase assay, PIK3C2G; format: biochemical
# T2 construct: purchased Carna Biosciences Inc; Invitrogen Corporation
# T2 sequence (O75747 whole entry): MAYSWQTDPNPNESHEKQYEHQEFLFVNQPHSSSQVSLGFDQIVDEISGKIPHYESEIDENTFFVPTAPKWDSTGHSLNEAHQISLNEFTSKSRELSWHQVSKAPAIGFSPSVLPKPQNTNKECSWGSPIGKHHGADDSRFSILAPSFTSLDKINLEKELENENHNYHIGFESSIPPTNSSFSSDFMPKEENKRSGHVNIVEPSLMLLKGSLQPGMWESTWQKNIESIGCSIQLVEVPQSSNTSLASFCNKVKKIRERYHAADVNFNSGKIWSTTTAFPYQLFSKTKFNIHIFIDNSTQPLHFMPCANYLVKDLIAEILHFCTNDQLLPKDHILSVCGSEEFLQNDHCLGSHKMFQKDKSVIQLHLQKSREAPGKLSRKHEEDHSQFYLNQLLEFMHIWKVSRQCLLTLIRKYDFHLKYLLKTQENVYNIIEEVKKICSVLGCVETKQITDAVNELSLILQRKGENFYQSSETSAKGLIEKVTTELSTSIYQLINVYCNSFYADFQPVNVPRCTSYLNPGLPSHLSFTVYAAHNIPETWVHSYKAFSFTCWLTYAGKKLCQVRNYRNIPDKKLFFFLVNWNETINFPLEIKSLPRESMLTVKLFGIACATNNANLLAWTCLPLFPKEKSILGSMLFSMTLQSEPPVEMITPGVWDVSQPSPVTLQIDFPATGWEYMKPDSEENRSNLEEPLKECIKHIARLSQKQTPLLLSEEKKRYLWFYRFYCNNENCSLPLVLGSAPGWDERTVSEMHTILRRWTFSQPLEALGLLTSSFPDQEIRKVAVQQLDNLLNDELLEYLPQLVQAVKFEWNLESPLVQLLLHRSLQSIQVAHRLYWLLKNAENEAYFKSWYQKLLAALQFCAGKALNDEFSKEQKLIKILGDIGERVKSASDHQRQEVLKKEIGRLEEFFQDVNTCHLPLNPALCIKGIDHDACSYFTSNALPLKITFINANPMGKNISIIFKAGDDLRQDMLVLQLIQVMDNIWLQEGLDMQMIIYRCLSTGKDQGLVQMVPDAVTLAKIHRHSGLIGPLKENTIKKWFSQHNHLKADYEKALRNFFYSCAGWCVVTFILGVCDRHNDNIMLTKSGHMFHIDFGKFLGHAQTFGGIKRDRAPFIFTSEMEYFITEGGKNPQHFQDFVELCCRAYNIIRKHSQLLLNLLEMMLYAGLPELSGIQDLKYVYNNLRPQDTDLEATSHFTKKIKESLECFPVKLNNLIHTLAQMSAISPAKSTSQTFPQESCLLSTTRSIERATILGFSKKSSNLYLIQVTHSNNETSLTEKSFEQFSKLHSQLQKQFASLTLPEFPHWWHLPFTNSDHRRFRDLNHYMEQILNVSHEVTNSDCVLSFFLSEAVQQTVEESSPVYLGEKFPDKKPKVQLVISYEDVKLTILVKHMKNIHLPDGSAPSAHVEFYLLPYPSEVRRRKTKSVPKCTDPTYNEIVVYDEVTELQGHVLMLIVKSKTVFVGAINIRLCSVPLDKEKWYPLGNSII
# Experimental: as §3, §4
# [6] = test system: MCF7 cells; assay: Scratch motility assay, MCF7; format: cell-based, human; conditions: IC50 and 2 x IC50; 3, 6, 9 h
# Experimental: Cells were grown to 100 % confluence in 12-well tissue culture plates and the following day a sterile 2 µl pipette tip was used to make a vertical scratch in the cell monolayer of each well and the cells treated with mitomycin C (M4287; Sigma Aldrich) at a final concentration of 10 μg/ml to inhibit proliferation. Cells were subsequently treated with MMV652103 or vehicle and imaged at 0, 3, 6 and 9 h post wound formation and ImageJ v1.50i software was used to calculate the area of the scratch (Schneider et al., 2012[73]). The total areas migrated was determined by subtracting the area for a specific time point from the area measured at 0 h.
structure (smiles),measurement,setting,value
CS(=O)(=O)c1ccc(-c2cnc3ccc(-c4cccc(S(C)(=O)=O)c4)nn23)cc1 [MMV652103],IC50,[1],6.6 ± 1.07 µM
same,IC50 at 48 h,[2],6.64 µM
same,remaining activity at 10 µM,[3]; 10 µM compound,23%
same,IC50,[3]; ADP-Glo,1.7 µM
same,levels of GSH,[4],significant decrease
same,remaining activity at 10 µM,[5]; 10 µM compound,4%
same,IC50,[5]; ADP-Glo,0.085 µM
same,MCF7 cell migration,[6],significant reduction
